Source: ChEMBL document CHEMBL5346973 (J Med Chem, 2023)
Where a SMILES comes first, the peptide text is derived from it.

Columns and labels:
[1] = target: Nicotinic acetylcholine receptor alpha9/alpha10 (Rattus norvegicus, UniProt P43144+Q9JLB5); experiment: Antagonist activity at rat alpha9alpha10 nACh receptor expressed in Xenopus oocyte assessed as inhibition of acetylcholine-induced response at -70 mV holding potential by voltage-clamp based electrophysiological assay; type: cell-based
[2] = target: Neuronal acetylcholine receptor subunit alpha-7 (Rattus norvegicus, UniProt Q05941); experiment: Antagonist activity at rat alpha7 nACh receptor expressed in Xenopus oocyte assessed as inhibition of acetylcholine-induced response at -70 mV holding potential by voltage-clamp based electrophysiological assay; type: cell-based
Sequence of Neuronal acetylcholine receptor subunit alpha-7 (Q05941 whole entry): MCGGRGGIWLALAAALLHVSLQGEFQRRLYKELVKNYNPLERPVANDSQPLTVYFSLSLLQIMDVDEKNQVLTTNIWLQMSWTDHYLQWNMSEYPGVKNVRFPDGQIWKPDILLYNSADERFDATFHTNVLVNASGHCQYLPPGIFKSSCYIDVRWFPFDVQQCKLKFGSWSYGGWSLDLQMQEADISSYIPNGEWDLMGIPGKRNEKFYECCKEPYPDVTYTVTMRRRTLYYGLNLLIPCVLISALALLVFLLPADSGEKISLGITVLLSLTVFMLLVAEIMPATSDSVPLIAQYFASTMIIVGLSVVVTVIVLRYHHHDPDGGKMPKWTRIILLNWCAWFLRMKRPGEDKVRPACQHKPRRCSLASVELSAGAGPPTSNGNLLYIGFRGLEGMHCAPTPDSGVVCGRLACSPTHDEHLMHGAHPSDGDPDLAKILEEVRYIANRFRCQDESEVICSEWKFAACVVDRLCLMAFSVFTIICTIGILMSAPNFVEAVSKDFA

Sequence of Nicotinic acetylcholine receptor alpha9/alpha10 (P43144 whole entry): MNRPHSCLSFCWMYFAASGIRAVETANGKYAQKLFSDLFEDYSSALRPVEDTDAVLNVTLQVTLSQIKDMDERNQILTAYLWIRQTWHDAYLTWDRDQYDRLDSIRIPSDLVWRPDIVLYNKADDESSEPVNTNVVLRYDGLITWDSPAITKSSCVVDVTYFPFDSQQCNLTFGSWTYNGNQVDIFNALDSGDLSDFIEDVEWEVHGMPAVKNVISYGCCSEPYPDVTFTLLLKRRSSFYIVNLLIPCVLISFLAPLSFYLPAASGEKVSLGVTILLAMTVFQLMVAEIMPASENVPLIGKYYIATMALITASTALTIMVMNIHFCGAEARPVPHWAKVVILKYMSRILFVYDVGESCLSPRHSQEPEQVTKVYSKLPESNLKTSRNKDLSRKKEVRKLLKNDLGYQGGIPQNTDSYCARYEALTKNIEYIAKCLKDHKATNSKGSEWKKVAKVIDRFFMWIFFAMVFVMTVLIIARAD
Sequence of Nicotinic acetylcholine receptor alpha9/alpha10 (Q9JLB5 whole entry): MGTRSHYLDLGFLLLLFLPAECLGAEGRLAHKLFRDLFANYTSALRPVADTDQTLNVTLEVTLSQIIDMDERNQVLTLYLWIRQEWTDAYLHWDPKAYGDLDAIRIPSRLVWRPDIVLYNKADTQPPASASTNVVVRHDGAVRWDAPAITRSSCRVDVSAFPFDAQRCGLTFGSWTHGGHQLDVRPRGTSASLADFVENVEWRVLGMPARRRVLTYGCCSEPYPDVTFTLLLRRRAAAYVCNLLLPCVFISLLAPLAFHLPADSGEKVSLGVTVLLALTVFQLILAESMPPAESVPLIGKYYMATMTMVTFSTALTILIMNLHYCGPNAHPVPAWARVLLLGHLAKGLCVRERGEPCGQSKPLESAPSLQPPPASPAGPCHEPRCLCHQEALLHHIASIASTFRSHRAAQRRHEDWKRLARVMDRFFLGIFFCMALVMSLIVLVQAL

Compound: CC(C)[C@H](NC(=O)[C@@H]1CSSC[C@H](NC(=O)[C@H](Cc2ccc(O)cc2)NC(=O)[C@H](CCCNC(=N)N)NC(=O)[C@H](CCCNC(=N)N)NC(=O)[C@H](CCCNC(=N)N)NC(=O)[C@H](CCCNC(=N)N)NC(=O)[C@H](CC(=O)O)NC(=O)[C@H](Cc2ccc(O)cc2)NC(=O)[C@@H]2CCCN2C(=O)[C@H](CO)NC(=O)[C@H](CCCNC(=N)N)NC(=O)[C@@H]2CSSC[C@H](NC(=O)[C@@H](N)[C@@H](C)O)C(=O)N[C@@H](CCCNC(=N)N)C(=O)N[C@@H](CO)C(=O)N[C@@H](CO)C(=O)NCC(=O)N[C@@H](CCCNC(=N)N)C(=O)N[C@@H](Cc3ccc(O)cc3)C(=O)N2)C(=O)N[C@@H](CCCNC(=N)N)C(=O)N[C@@H](CCCNC(=N)N)C(=O)N[C@@H](C)C(=O)N[C@@H]([C@@H](C)O)C(=O)N[C@@H](CC(=O)O)C(=O)N[C@@H](C)C(=O)N1)C(=O)O
- IC50 [1]: 16 nM
- IC50 [2]: 640 nM

Compound: CC[C@H](C)[C@@H]1NC(=O)[C@H](CCCNC(=N)N)NC(=O)[C@H](CCCNC(=N)N)NC(=O)[C@@H](NC(=O)[C@H](Cc2ccc(O)cc2)NC(=O)[C@H](CCCNC(=N)N)NC(=O)[C@H](CCCNC(=N)N)NC(=O)[C@H](C)NC(=O)[C@H](CCCNC(=N)N)NC(=O)[C@H](CC(=O)O)NC(=O)[C@H](Cc2ccc(O)cc2)NC(=O)[C@@H]2CCCN2C(=O)[C@H](CO)NC(=O)[C@H](CCCNC(=N)N)NC(=O)[C@@H]2CSSC[C@H](NC(=O)[C@@H](N)[C@@H](C)O)C(=O)N[C@@H](CCCNC(=N)N)C(=O)N[C@@H](CO)C(=O)N[C@@H](CO)C(=O)NCC(=O)N[C@@H](CCCNC(=N)N)C(=O)N[C@@H](Cc3ccc(O)cc3)C(=O)N2)CSSC[C@@H](C(=O)N[C@H](C(=O)O)C(C)C)NC(=O)[C@H](C)NC(=O)[C@H](CC(=O)O)NC(=O)[C@H]([C@@H](C)O)NC1=O
- IC50 [1]: 18 nM
- IC50 [2]: 3780 nM

Compound: CC[C@H](C)[C@@H]1NC(=O)[C@H](CCCNC(=N)N)NC(=O)[C@H](CCCNC(=N)N)NC(=O)[C@@H](NC(=O)[C@H](Cc2ccc(O)cc2)NC(=O)[C@H](CCCNC(=N)N)NC(=O)[C@H](CCCNC(=N)N)NC(=O)[C@H](CCCNC(=N)N)NC(=O)[C@H](CCCNC(=N)N)NC(=O)[C@H](CC(=O)O)NC(=O)[C@H](Cc2ccc(O)cc2)NC(=O)[C@@H]2CCCN2C(=O)[C@H](CO)NC(=O)[C@H](CCCNC(=N)N)NC(=O)[C@@H]2CSSC[C@H](NC(=O)[C@@H](N)[C@@H](C)O)C(=O)N[C@@H](CCCNC(=N)N)C(=O)N[C@@H](CO)C(=O)N[C@@H](CO)C(=O)N[C@@H](C)C(=O)N[C@@H](CCCNC(=N)N)C(=O)N[C@@H](Cc3ccc(O)cc3)C(=O)N2)CSSC[C@H](C(=O)N[C@H](C(=O)O)C(C)C)NC(=O)[C@H](C)NC(=O)[C@H](CC(=O)O)NC(=O)[C@H]([C@@H](C)O)NC1=O
- IC50 [1]: 4.5 nM
- IC50 [2]: 1460 nM

Compound: CC[C@H](C)[C@@H]1NC(=O)[C@H](CCCNC(=N)N)NC(=O)[C@H](CCCNC(=N)N)NC(=O)[C@@H]2CSSC[C@H](NC(=O)[C@H](Cc3ccc(O)cc3)NC(=O)[C@H](CCCNC(=N)N)NC(=O)CNC(=O)[C@H](CO)NC(=O)[C@H](CO)NC(=O)[C@H](CCCNC(=N)N)NC(=O)[C@@H](NC(=O)[C@@H](N)[C@@H](C)O)CSSC[C@@H](C(=O)N[C@@H](C)C(=O)O)NC(=O)[C@H](C)NC(=O)[C@H](CC(=O)O)NC(=O)[C@H]([C@@H](C)O)NC1=O)C(=O)N[C@@H](CCCNC(=N)N)C(=O)N[C@@H](CO)C(=O)N1CCC[C@H]1C(=O)N[C@@H](Cc1ccc(O)cc1)C(=O)N[C@@H](CC(=O)O)C(=O)N[C@@H](CCCNC(=N)N)C(=O)N[C@@H](CCCNC(=N)N)C(=O)N[C@@H](CCCNC(=N)N)C(=O)N[C@@H](CCCNC(=N)N)C(=O)N[C@@H](Cc1ccc(O)cc1)C(=O)N2
- IC50 [1]: 62 nM
- IC50 [2]: 1600 nM

Compound: CC[C@H](C)[C@@H]1NC(=O)[C@H](CCCNC(=N)N)NC(=O)[C@H](CCCNC(=N)N)NC(=O)[C@@H]2CSSC[C@H](NC(=O)[C@H](Cc3ccc(O)cc3)NC(=O)[C@H](CCCNC(=N)N)NC(=O)CNC(=O)[C@H](C)NC(=O)[C@H](CO)NC(=O)[C@H](CCCNC(=N)N)NC(=O)[C@@H](NC(=O)[C@@H](N)[C@@H](C)O)CSSC[C@@H](C(=O)N[C@H](C(=O)O)C(C)C)NC(=O)[C@H](C)NC(=O)[C@H](CC(=O)O)NC(=O)[C@H]([C@@H](C)O)NC1=O)C(=O)N[C@@H](CCCNC(=N)N)C(=O)N[C@@H](CO)C(=O)N1CCC[C@H]1C(=O)N[C@@H](Cc1ccc(O)cc1)C(=O)N[C@@H](CC(=O)O)C(=O)N[C@@H](CCCNC(=N)N)C(=O)N[C@@H](CCCNC(=N)N)C(=O)N[C@@H](CCCNC(=N)N)C(=O)N[C@@H](CCCNC(=N)N)C(=O)N[C@@H](Cc1ccc(O)cc1)C(=O)N2 (HELM PEPTIDE1{T.C.R.S.A.G.R.Y.C.R.S.P.Y.D.R.R.R.R.Y.C.R.R.I.T.D.A.C.V}$PEPTIDE1,PEPTIDE1,2:R3-27:R3|PEPTIDE1,PEPTIDE1,9:R3-20:R3$$$V2.0)
- IC50 [1]: 60 nM
- IC50 [2]: 6330 nM

Compound: CC[C@H](C)[C@@H]1NC(=O)[C@H](CCCNC(=N)N)NC(=O)[C@H](CCCNC(=N)N)NC(=O)[C@@H]2CSSC[C@H](NC(=O)[C@H](Cc3ccc(O)cc3)NC(=O)[C@H](CCCNC(=N)N)NC(=O)CNC(=O)[C@H](CO)NC(=O)[C@H](CO)NC(=O)[C@H](CCCNC(=N)N)NC(=O)[C@@H](NC(=O)[C@@H](N)[C@@H](C)O)CSSC[C@@H](C(=O)N[C@H](C(=O)O)C(C)C)NC(=O)[C@H](C)NC(=O)[C@H](CC(=O)O)NC(=O)[C@H](C)NC1=O)C(=O)N[C@@H](CCCNC(=N)N)C(=O)N[C@@H](CO)C(=O)N1CCC[C@H]1C(=O)N[C@@H](Cc1ccc(O)cc1)C(=O)N[C@@H](CC(=O)O)C(=O)N[C@@H](CCCNC(=N)N)C(=O)N[C@@H](CCCNC(=N)N)C(=O)N[C@@H](CCCNC(=N)N)C(=O)N[C@@H](CCCNC(=N)N)C(=O)N[C@@H](Cc1ccc(O)cc1)C(=O)N2
- IC50 [1]: 36 nM
- IC50 [2]: 7130 nM

Compound: CC[C@H](C)[C@@H]1NC(=O)[C@H](CCCNC(=N)N)NC(=O)[C@H](CCCNC(=N)N)NC(=O)[C@@H]2CSSC[C@H](NC(=O)[C@H](Cc3ccc(O)cc3)NC(=O)[C@H](CCCNC(=N)N)NC(=O)CNC(=O)[C@H](CO)NC(=O)[C@H](CO)NC(=O)[C@H](CCCNC(=N)N)NC(=O)[C@@H](NC(=O)[C@@H](N)[C@@H](C)O)CSSC[C@@H](C(=O)N[C@H](C(=O)O)C(C)C)NC(=O)[C@H](C)NC(=O)[C@H](CC(=O)O)NC(=O)[C@H]([C@@H](C)O)NC1=O)C(=O)N[C@@H](C)C(=O)N[C@@H](CO)C(=O)N1CCC[C@H]1C(=O)N[C@@H](Cc1ccc(O)cc1)C(=O)N[C@@H](CC(=O)O)C(=O)N[C@@H](CCCNC(=N)N)C(=O)N[C@@H](CCCNC(=N)N)C(=O)N[C@@H](CCCNC(=N)N)C(=O)N[C@@H](CCCNC(=N)N)C(=O)N[C@@H](Cc1ccc(O)cc1)C(=O)N2 (HELM PEPTIDE1{T.C.R.S.S.G.R.Y.C.A.S.P.Y.D.R.R.R.R.Y.C.R.R.I.T.D.A.C.V}$PEPTIDE1,PEPTIDE1,2:R3-27:R3|PEPTIDE1,PEPTIDE1,9:R3-20:R3$$$V2.0)
- IC50 [1]: 35 nM
- IC50 [2]: 8760 nM
